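Method: 48-hour compound exposure of cells in 96-well plates, five concentrations, linear interpolation of endpoints. The concentration for 50% growth inhibition is given as GI50. The concentration for full growth arrest is given as TGI.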
Legend:
Experiment in all cases: NCI anticancer screen, dose series, 48 h
SK-MEL-5 melanoma = system: SK-MEL-5 melanoma
786-0 renal = system: 786-0 renal
CCRF-CEM leukemia = system: CCRF-CEM leukemia
SK-MEL-2 melanoma = system: SK-MEL-2 melanoma
UACC-62 melanoma = system: UACC-62 melanoma
TK-10 renal = system: TK-10 renal
EKVX NSCLC = system: EKVX NSCLC
PC-3 prostate = system: PC-3 prostate
MDA-MB-231 breast = system: MDA-MB-231 breast
SK-OV-3 ovarian = system: SK-OV-3 ovarian
HT29 colon = system: HT29 colon
NCI-H522 lung = system: NCI-H522 lung
OVCAR-8 ovarian = system: OVCAR-8 ovarian
MOLT-4 leukemia = system: MOLT-4 leukemia
T-47D breast = system: T-47D breast
NCI-H460 lung = system: NCI-H460 lung
SW-620 colon = system: SW-620 colon
SNB-19 CNS = system: SNB-19 CNS
HCT-15 colon = system: HCT-15 colon
HOP-92 NSCLC = system: HOP-92 NSCLC
UO-31 renal = system: UO-31 renal
SF-539 CNS = system: SF-539 CNS
RXF 393 renal = system: RXF 393 renal
U251 CNS = system: U251 CNS
CAKI-1 renal = system: CAKI-1 renal
UACC-257 melanoma = system: UACC-257 melanoma
M14 melanoma = system: M14 melanoma
K-562 leukemia = system: K-562 leukemia
SK-MEL-28 melanoma = system: SK-MEL-28 melanoma
KM12 colon = system: KM12 colon
HCC-2998 colon = system: HCC-2998 colon
MCF7 breast = system: MCF7 breast
NCI-H23 lung = system: NCI-H23 lung
MDA-MB-435 = system: MDA-MB-435
SNB-75 CNS = system: SNB-75 CNS
HOP-62 NSCLC = system: HOP-62 NSCLC
DU-145 prostate = system: DU-145 prostate
NCI/ADR-RES ovarian = system: NCI/ADR-RES ovarian
COLO 205 colon = system: COLO 205 colon
SN12C renal = system: SN12C renal
HS 578T breast = system: HS 578T breast
OVCAR-5 ovarian = system: OVCAR-5 ovarian
A498 renal = system: A498 renal
SF-268 CNS = system: SF-268 CNS
BT-549 breast = system: BT-549 breast
IGROV1 ovarian = system: IGROV1 ovarian
MALME-3M melanoma = system: MALME-3M melanoma
HCT-116 colon = system: HCT-116 colon
SR leukemia = system: SR leukemia
HL-60(TB) leukemia = system: HL-60(TB) leukemia
A549 NSCLC = system: A549 NSCLC
OVCAR-4 ovarian = system: OVCAR-4 ovarian
NCI-H226 lung = system: NCI-H226 lung

C#CCNC1CCC(c2csc(C#C)n2)=C1C (stereo unspecified)
GI50 (SK-MEL-5 melanoma): 7.98 µM | TGI (SK-MEL-5 melanoma): 24.2 µM | GI50 (786-0 renal): 0.195 µM | TGI (786-0 renal): 0.368 µM | GI50 (CCRF-CEM leukemia): 0.922 µM | TGI (CCRF-CEM leukemia): 4.94 µM | GI50 (SK-MEL-2 melanoma): 24.8 µM | TGI (SK-MEL-2 melanoma): > 100 µM | GI50 (UACC-62 melanoma): 9.74 µM | TGI (UACC-62 melanoma): > 100 µM | GI50 (TK-10 renal): > 100 µM | TGI (TK-10 renal): > 100 µM | GI50 (EKVX NSCLC): 2.51 µM | TGI (EKVX NSCLC): 46.9 µM | GI50 (PC-3 prostate): 3.79 µM | TGI (PC-3 prostate): > 100 µM | GI50 (MDA-MB-231 breast): 1.56 µM | TGI (MDA-MB-231 breast): 3.98 µM | GI50 (SK-OV-3 ovarian): 2.57 µM | TGI (SK-OV-3 ovarian): 7.41 µM | GI50 (HT29 colon): 2.88 µM | TGI (HT29 colon): 10.3 µM | GI50 (NCI-H522 lung): 1.83 µM | TGI (NCI-H522 lung): 3.85 µM | GI50 (OVCAR-8 ovarian): 3.06 µM | TGI (OVCAR-8 ovarian): > 100 µM | GI50 (MOLT-4 leukemia): 5.32 µM | TGI (MOLT-4 leukemia): 83.8 µM | GI50 (T-47D breast): 3.88 µM | TGI (T-47D breast): > 100 µM | GI50 (NCI-H460 lung): 4.65 µM | TGI (NCI-H460 lung): > 100 µM | GI50 (SW-620 colon): 8 µM | TGI (SW-620 colon): 27.8 µM | GI50 (SNB-19 CNS): 4.33 µM | TGI (SNB-19 CNS): > 100 µM | GI50 (HCT-15 colon): 6.66 µM | TGI (HCT-15 colon): 22.7 µM | GI50 (HOP-92 NSCLC): 1.21 µM | TGI (HOP-92 NSCLC): 2.91 µM | GI50 (UO-31 renal): 0.136 µM | TGI (UO-31 renal): 0.306 µM | GI50 (SF-539 CNS): 1.75 µM | TGI (SF-539 CNS): 3.28 µM | GI50 (RXF 393 renal): 2.66 µM | TGI (RXF 393 renal): 9.49 µM | GI50 (U251 CNS): 2.3 µM | TGI (U251 CNS): 6 µM | GI50 (CAKI-1 renal): 2.11 µM | TGI (CAKI-1 renal): 11.5 µM | GI50 (UACC-257 melanoma): 32.1 µM | TGI (UACC-257 melanoma): > 100 µM | GI50 (M14 melanoma): 4.22 µM | TGI (M14 melanoma): 90.6 µM | GI50 (K-562 leukemia): 3.95 µM | TGI (K-562 leukemia): > 100 µM | GI50 (SK-MEL-28 melanoma): 25.1 µM | TGI (SK-MEL-28 melanoma): > 100 µM | GI50 (KM12 colon): 9.09 µM | TGI (KM12 colon): > 100 µM | GI50 (HCC-2998 colon): 13.3 µM | TGI (HCC-2998 colon): 28.6 µM | GI50 (MCF7 breast): 3.41 µM | TGI (MCF7 breast): 18.3 µM | GI50 (NCI-H23 lung): 0.469 µM | TGI (NCI-H23 lung): 1.87 µM | GI50 (MDA-MB-435): 16 µM | TGI (MDA-MB-435): 67 µM | GI50 (SNB-75 CNS): 1.05 µM | TGI (SNB-75 CNS): 2.24 µM | GI50 (HOP-62 NSCLC): 1.89 µM | TGI (HOP-62 NSCLC): 4.98 µM | GI50 (DU-145 prostate): 5.97 µM | TGI (DU-145 prostate): > 100 µM | GI50 (NCI/ADR-RES ovarian): 6.11 µM | TGI (NCI/ADR-RES ovarian): > 100 µM | GI50 (COLO 205 colon): 17.1 µM | TGI (COLO 205 colon): 39.1 µM | GI50 (SN12C renal): 3.94 µM | TGI (SN12C renal): > 100 µM | GI50 (HS 578T breast): 2.99 µM | TGI (HS 578T breast): 36.6 µM | GI50 (OVCAR-5 ovarian): 4.77 µM | TGI (OVCAR-5 ovarian): > 100 µM | GI50 (A498 renal): 3.9 µM | TGI (A498 renal): 17.6 µM | GI50 (SF-268 CNS): 2.59 µM | TGI (SF-268 CNS): 8.27 µM | GI50 (BT-549 breast): 1.8 µM | TGI (BT-549 breast): 3.58 µM | GI50 (IGROV1 ovarian): 0.183 µM | TGI (IGROV1 ovarian): 0.391 µM | GI50 (MALME-3M melanoma): 1.68 µM | TGI (MALME-3M melanoma): 3.37 µM | GI50 (HCT-116 colon): 4.79 µM | TGI (HCT-116 colon): 70.1 µM | GI50 (SR leukemia): 1.3 µM | TGI (SR leukemia): 8.24 µM | GI50 (HL-60(TB) leukemia): 2.3 µM | TGI (HL-60(TB) leukemia): 5.29 µM | GI50 (A549 NSCLC): 10.3 µM | TGI (A549 NSCLC): > 100 µM | GI50 (OVCAR-4 ovarian): 23.5 µM | TGI (OVCAR-4 ovarian): > 100 µM | GI50 (NCI-H226 lung): 11.4 µM | TGI (NCI-H226 lung): > 100 µM
